Measured values taken from patent US8815852B2, “Carbamoyloxy arylalkan arylpiperazine analgesics” (SK Biopharmaceuticals Co., Ltd., priority 2007, dated 2014).

These compounds were tested on male ICR mouse (assay: Acetic acid-induced writhing test in mouse). Conditions: Mus musculus, po, 1 h, at 10 po (method: 10 mg/kg oral, 1 hour before acetic acid); read-out: AA Writhing: Suppression ratio of Pain response.
Assay type: in vivo
Method: 2. Acetic Acid-Induced Writhing Test in Mouse
An acetic acid-induced writhing test is one of models for measuring an analgesic effect of drugs. A test material dissolved in a suitable vehicle was orally administered to a male ICR mouse weighing 30 to 35 g at an amount of 10 mg/kg. After 1 hour of the oral administration, […] of an aqueous 0.8% acetic acid solution was intraperitoneally injected into the male ICR mouse to induce the abdominal pain of the male ICR mouse. Right after the administration of acetic acid, the male ICR mouse was put into an empty cage, and the number of writhing behaviors of the mice was counted for 10 minutes. The term “writhing represents a reflex action in which the mouse overtly extends its abdomen by stretching its hind legs due to the abdominal pain. The analgesic effect of the test material is represented by the ‘suppression ratio of pain response’ {[(Writhing number of Vehicle-administered group−Writhing number of Test material-administered group)/(Writhing number of Vehicle-administered group)]×100%} or 50% of Effective amount (ED50 (median effective dose); an amount of test material that is required to suppress 50% of pain behaviors) of Test material. The ED50 (median effective dose) was determined by calculating the suppression ratio of pain response in at least three doses of test materials and subjecting to the linear regression.
In the case of `COc1ccc(N2CCN(CCC(OC(N)=O)c3ccccc3C)CC2)cc1` (centres unmarked) [Example 59, Carbamic acid 3-[4-(4-methoxy-phenyl)-piperazin-1-yl]-1-o-tolyl-propyl ester], the inhibition in vivo at 10 mg/kg is reported as 48%.
Compound `NC(=O)OC(CCN1CCN(c2ccc(Cl)c(Cl)c2)CC1)c1ccc(F)cc1` (centres unmarked) [Example 76, Carbamic acid 3-[4-(3,4-dichloro-phenyl)-piperazin-1-yl]-1-(4-fluoro-phenyl)-propyl ester] has an inhibition in vivo at 10 mg/kg of 50%.
`COc1ccc(N2CCN(CCC3OC(=O)Nc4ccccc43)CC2)cc1` (centres unmarked) [Example 107, 4-{2-[4-(4-methoxy-phenyl)-piperazin-1-yl]-ethyl}-1,4-dihydro-benzo[d][1,3]oxazin-2-one] showed an inhibition in vivo at 10 mg/kg of 35%.
`CC(C)(C)C(=O)Oc1ccc(N2CCN(CCC(OC(N)=O)c3ccc(F)cc3)CC2)cc1` (centres unmarked) [Example 89, 1-(4-fluorophenyl)-3-(4-(4-(pivaloyloxy)phenyl)piperazin-1-yl)propyl carbamate] was tested, and the inhibition in vivo at 10 mg/kg was 63%.
`COc1ccc(N2CCN(CCC(OC(N)=O)c3cccc(OC)c3)CC2)cc1` (centres unmarked) [Example 54, Carbamic acid 1-(3-methoxy-phenyl)-3-[4-(4-methoxy-phenyl)-piperazin-1-yl]-propyl ester] was tested, and the inhibition in vivo at 10 mg/kg was 69%.
Compound `COc1ccc(N2CCN(CCC(OC(N)=O)c3ccc(Cl)cc3Cl)CC2)cc1` (centres unmarked) [Example 58, Carbamic acid 1-(2,4-dichloro-phenyl)-3-[4-(4-methoxy-phenyl)-piperazin-1-yl]-propyl ester] has an inhibition in vivo at 10 mg/kg of 16%.
`COc1ccc(N2CCN(CCC(OC(N)=O)c3ccccc3Cl)CC2)cc1` (centres unmarked) [Example 50, Carbamic acid 1-(2-chloro-phenyl)-3-[4-(4-methoxy-phenyl)-piperazin-1-yl]-propyl ester] gave an inhibition in vivo at 10 mg/kg of 49%.
Work on `COc1ccc(N2CCN(CCC(OC(N)=O)c3ccc(Cl)c(C(F)(F)F)c3)CC2)cc1` (centres unmarked) [Example 63, Carbamic acid 1-(4-chloro-3-trifluoromethyl-phenyl)-3-[4-(4-methoxy-phenyl)-piperazin-1-yl]-propyl ester] yielded an inhibition in vivo at 10 mg/kg of 46%.
`COc1ccc(N2CCN(CCC(OC(N)=O)c3ccc(F)c(F)c3)CC2)cc1` (centres unmarked) [Example 52, Carbamic acid 1-(3,4-difluoro-phenyl)-3-[4-(4-methoxy-phenyl)-piperazin-1-yl]-propyl ester] was tested, and the inhibition in vivo at 10 mg/kg was 61%.
`NC(=O)OC(CCN1CCN(c2ccccc2O)CC1)c1ccccc1` (centres unmarked) [Example 23, Carbamic acid 3-[4-(2-hydroxy-phenyl)-piperazin-1-yl]-1-phenyl-propyl ester] gave an inhibition in vivo at 10 mg/kg of 37%.
`NC(=O)OC(CCN1CCN(c2ccc(O)cc2)CC1)c1ccc(Cl)c(Cl)c1` (centres unmarked) [Example 73, Carbamic acid 1-(3,4-dichloro-phenyl)-3-[4-(4-hydroxy-phenyl)-piperazin-1-yl]-propyl ester] was tested, and the inhibition in vivo at 10 mg/kg was 55%.
In the case of `COc1ccc(N2CCN(C(C)CC(OC(N)=O)c3ccccc3)CC2)cc1` (centres unmarked) [Example 108, Carbamic acid 3-[4-(4-methoxy-phenyl)-piperazin-1-yl]-1-phenyl-butyl ester], the inhibition in vivo at 10 mg/kg is reported as 83.5%.
Work on `COc1ccc(N2CCN(CCC(OC(N)=O)c3ccc(C)cc3)CC2)cc1` (centres unmarked) [Example 56, Carbamic acid 3-[4-(4-methoxy-phenyl)-piperazin-1-yl]-1-p-tolyl-propyl ester] yielded an inhibition in vivo at 10 mg/kg of 93%.
Compound `CC(CC(OC(N)=O)c1ccccc1)N1CCN(c2ccc(Cl)c(Cl)c2)CC1` (centres unmarked) [Example 115, Carbamic acid 3-[4-(3,4-dichloro-phenyl)-piperazin-1-yl]-1-phenyl-butyl ester] has an inhibition in vivo at 10 mg/kg of 68%.
For `COc1ccc(N2CCN(CCC(OC(N)=O)c3ccc4c(c3)OCO4)CC2)cc1` (centres unmarked) [Example 67], the inhibition in vivo at 10 mg/kg was 57%.
`NC(=O)OC(CCN1CCN(c2ccc3c(c2)OCCO3)CC1)c1ccccc1` (centres unmarked) [Example 11, Carbamic acid 3-[4-(2,3-dihydro-benzo[1,4]dioxin-6-yl)-piperazin-1-yl]-1-phenyl-propyl ester] showed an inhibition in vivo at 10 mg/kg of 48%.
For `NC(=O)OC(CCN1CCN(c2ccc(C(F)(F)F)cc2[N+](=O)[O-])CC1)c1ccccc1` (centres unmarked) [Example 35, Carbamic acid 3-[4-(2-nitro-4-trifluoromethyl-phenyl)-piperazin-1-yl]-1-phenyl-propyl ester], the inhibition in vivo at 10 mg/kg was 50%.
For `COc1ccc(Cl)cc1N1CCN(CCC(OC(N)=O)c2ccc(F)cc2)CC1` (centres unmarked) [Example 75, Carbamic acid 3-[4-(5-chloro-2-methoxy-phenyl)-piperazin-1-yl]-1-(4-fluoro-phenyl)-propyl ester], the inhibition in vivo at 10 mg/kg was 14%.
`COc1ccc(N2CCN(CCC(OC(N)=O)c3ccc(Cl)c(Cl)c3)CC2)cc1` (centres unmarked) [Example 70, Carbamic acid 1-(3,4-dichloro-phenyl)-3-[4-(4-methoxy-phenyl)-piperazin-1-yl]-propyl ester] was tested, and the inhibition in vivo at 10 mg/kg was 51%.
`COc1ccc(N2CCN(CCC(OC(N)=O)c3ccc(C(C)(C)C)cc3)CC2)cc1` (centres unmarked) [Example 48] was tested, and the inhibition in vivo at 10 mg/kg was 93%.
For `NC(=O)OC(CCN1CCN(c2ccc(OCc3ccccc3)cc2)CC1)c1ccccc1` (centres unmarked) [Example 85, Carbamic acid 3-[4-(4-benzyloxyphenyl)-piperazin-1-yl]-1-phenyl-propyl ester], the inhibition in vivo at 10 mg/kg was 58%.
With `NC(=O)OC(CCN1CCN(c2ccc(Cl)c(Cl)c2)CC1)c1ccccc1` (centres unmarked) [Example 31, Carbamic acid 3-[4-(3,4-dichloro-phenyl)-piperazin-1-yl]-1-phenyl-propyl ester] the inhibition in vivo at 10 mg/kg was 85%.
`NC(=O)OC(CCN1CCN(c2ccc(OC(F)(F)F)cc2)CC1)c1ccccc1` (centres unmarked) [Example 12, Carbamic acid 1-phenyl-3-[4-(4-trifluoromethoxy-phenyl)-piperazin-1-yl]-propyl ester] was tested, and the inhibition in vivo at 10 mg/kg was 18%.
With `COc1ccc(N2CCN(CCC(OC(N)=O)c3ccccc3F)CC2)cc1` (centres unmarked) [Example 46, Carbamic acid 1-(2-fluoro-phenyl)-3-[4-(4-methoxy-phenyl)-piperazin-1-yl]-propyl ester] the inhibition in vivo at 10 mg/kg was 42%.
`NC(=O)OC(CCN1CCN(c2ccc3c(c2)OCO3)CC1)c1ccccc1` (centres unmarked) [Example 30, Carbamic acid 3-(4-benzo[1,3]dioxol-5-yl-piperazin-1-yl)-1-phenyl-propyl ester] was tested, and the inhibition in vivo at 10 mg/kg was 93%.
`COc1ccc(N2CCN(CCC(OC(N)=O)c3cc(C)ccc3C)CC2)cc1` (centres unmarked) [Example 62, Carbamic acid 1-(2,5-dimethyl-phenyl)-3-[4-(4-methoxy-phenyl)-piperazin-1-yl]-propyl ester] gave an inhibition in vivo at 10 mg/kg of 62%.
Work on `COc1ccc(N2CC(C)N(CC[C@@H](OC(N)=O)c3ccccc3)C(C)C2)cc1` (stereo partly drawn) [Example 101, Carbamic acid (R)-3-[4-(4-methoxy-phenyl)-2,6-dimethyl-piperazin-1-yl]-1-phenyl-propyl ester] yielded an inhibition in vivo at 10 mg/kg of 48%.
In the case of `CC(CC(OC(N)=O)c1ccccc1)N1CCN(c2cnc3ccccc3n2)CC1` (centres unmarked) [Example 112], the inhibition in vivo at 10 mg/kg is reported as 72%.
`COc1ccc(N2CCN(CCC(OC(N)=O)c3ccc(C)cc3C)CC2)cc1` (centres unmarked) [Example 60, Carbamic acid 1-(2,4-dimethyl-phenyl)-3-[4-(4-methoxy-phenyl)-piperazin-1-yl]-propyl ester] was tested, and the inhibition in vivo at 10 mg/kg was 62%.
`Cc1cccc(C)c1N1CCN(CCC(OC(N)=O)c2ccccc2)CC1` (centres unmarked) [Example 19, Carbamic acid 3-[4-(2,6-dimethyl-phenyl)-piperazin-1-yl]-1-phenyl-propyl ester] gave an inhibition in vivo at 10 mg/kg of 48%.
`COc1ccc(N2CCN(CCC(OC(N)=O)c3ccc([N+](=O)[O-])cc3)CC2)cc1` (centres unmarked) [Example 44, Carbamic acid 3-[4-(4-methoxy-phenyl)-piperazin-1-yl]-1-(4-nitro-phenyl)-propyl ester] was tested, and the inhibition in vivo at 10 mg/kg was 64%.
With `COc1ccc(N2CCN(CC3CCc4ccccc4C3OC(N)=O)CC2)cc1` (centres unmarked) [Example 82, Carbamic acid 2-[4-(4-methoxy-phenyl)-piperazin-1-ylmethyl]-1,2,3,4-tetrahydro-naphthalen-1-yl ester] the inhibition in vivo at 10 mg/kg was 55%.

Same assay, conditions: Mus musculus; ip; unit not given (method doses in mg/kg); read-out: AA Writhing: ED50
`NC(=O)OC(CCN1CCN(c2ccc(C(F)(F)F)cc2)CC1)c1ccccc1` (centres unmarked) [Example 40, Carbamic acid 1-phenyl-3-[4-(4-trifluoromethyl-phenyl)-piperazin-1-yl]-propyl ester] showed an ED50 of 1.64 mg/kg.
Work on `CC(=O)Oc1ccc(N2CCN(CCC(OC(N)=O)c3ccc(F)cc3)CC2)cc1` (centres unmarked) [Example 92, Acetic acid 4-{4-[3-carbamoyloxy-3-(4-fluoro-phenyl)-propyl]-piperazin-1-yl}-phenyl ester] yielded an ED50 of 0.22 mg/kg.

Same assay, conditions: Mus musculus; po; unit not given (method doses in mg/kg); read-out: AA Writhing: ED50
For `CC(=O)Oc1ccc(N2CCN(CCC(OC(N)=O)c3ccccc3)CC2)cc1` (centres unmarked) [Example 86, Acetic acid 4-[4-(3-carbamoyloxy-3-phenyl-propyl)-piperazin-1-yl]-phenyl ester], the ED50 was 7.52 mg/kg.
`NC(=O)O[C@H](CCN1CCN(c2ccc(O)cc2)CC1)c1ccccc1` [Example 105, (R)-carbamic acid 3-[4-(4-hydroxy-phenyl)-piperazin-1-yl]-1-phenyl-propyl ester] gave an ED50 of 6.49 mg/kg.
Work on `CC(=O)Oc1ccc(N2CCN(CCC(OC(N)=O)c3ccc(F)cc3)CC2)cc1` (centres unmarked) [Example 92, Acetic acid 4-{4-[3-carbamoyloxy-3-(4-fluoro-phenyl)-propyl]-piperazin-1-yl}-phenyl ester] yielded an ED50 of 5.66 mg/kg.
Compound `NC(=O)OC(c1ccccc1)C(F)CN1CCN(c2ccccc2)CC1` (centres unmarked) [Example 117, Carbamic acid 2-fluoro-1-phenyl-3-(4-phenyl-piperazin-1-yl)-propyl ester] has an ED50 of 32.2 mg/kg.
